# Source: patent US20200062735A1, “HETEROCYCLIC AMIDES AS KINASE INHIBITORS” (GlaxoSmithKline Intellectual Property Development Limited, priority 2017, published 2020)
# Key:
# H-22 = assay: Syngeneic subcutaneous tumor model H-22; type: in vivo, mouse; conditions: H-22 model; Example 6 40 mg/kg p.o. BID up to 21 days
# Procedure: The efficacy of RIP1 inhibition was tested in 12 different murine (6-8 week old) syngeneic subcutaneous tumor models. RIP1 inhibition was tested as a single agent in all models, with anti-PD1 combination arms added to the five of the final models.
# T and C are the mean tumor volume of the treated and control groups, respectively, on a given day. • 2) Tumor and plasma collection at study end for further investigation.
# Cell Culture: The 12 syngeneic cell lines were maintained in vitro with different medium (indicated in Table 3) at 37° C. in an atmosphere of 5% CO2 in air. The tumor cells were routinely subcultured twice weekly. The cells in an exponential growth phase were harvested and counted for tumor inoculation.
# Each mouse was inoculated subcutaneously with tumor cells in 0.1 mL of PBS for tumor development. The treatments were started when the mean tumor size reached approximately 80-120 mm^3 (around 100 mm^3).
# RIP1 = target: T1, RIP1 (Homo sapiens, UniProt Q13546); assay: Fluorescent polarization based binding assay (FP Binding Assay); conditions: His-GST-RipK1(1-375) 10 nM, fluorescent labeled ligand 5 nM
# T1 construct: His-GST-RipK1(1-375) was purified from a Baculovirus expression system; His (N); GST (N); made in house
# T1 sequence (Q13546 1-375): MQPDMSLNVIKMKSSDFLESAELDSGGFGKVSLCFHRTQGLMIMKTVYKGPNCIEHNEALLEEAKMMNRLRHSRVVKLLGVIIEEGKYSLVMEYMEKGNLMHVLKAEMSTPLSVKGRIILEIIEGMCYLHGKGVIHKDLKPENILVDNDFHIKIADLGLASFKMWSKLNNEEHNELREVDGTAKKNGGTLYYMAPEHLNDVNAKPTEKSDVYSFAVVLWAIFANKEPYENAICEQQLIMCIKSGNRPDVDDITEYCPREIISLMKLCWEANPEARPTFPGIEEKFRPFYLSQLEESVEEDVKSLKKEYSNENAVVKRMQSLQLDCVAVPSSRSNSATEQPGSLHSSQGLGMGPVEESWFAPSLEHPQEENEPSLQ
# Procedure: In vitro Assay: A fluorescent polarization based binding assay was developed to quantitate interaction of novel test compounds at the ATP binding pocket of RIP1, by competition with a fluorescently labeled ATP competitive ligand. […] Test compounds were prepared in neat DMSO and 100 nL was dispensed to individual wells of a multiwell plate. […] Following the incubation, 5 μL of the fluorescent labeled ligand solution, was added to each reaction, at twice the final assay concentration, and incubated at room temperature for at least 15 minutes. Finally, samples were read on an instrument capable of measuring fluorescent polarization. Test compound inhibition was expressed as percent inhibition of internal assay controls. For concentration response experiments, normalized data were fit and pIC50 values determined using conventional techniques.
smiles,measurement,setting,value
"N#Cc1cc(N2CCC(C(=O)N3N=CC[C@H]3c3cc(F)cc(F)c3)CC2)ncn1 [Example 6, (S)-6-(4-(5-(3,5-difluorophenyl)-4,5-dihydro-1H-pyrazole-1-carbonyl)piperidin-1-yl)pyrimidine-4-carbonitrile]",Mean tumor growth inhibition (TGI) at model termination,H-22,19%
"O=C(N[C@H]1CNc2cccc(F)c2NC1=O)c1nnc(Cc2ccccc2F)[nH]1 [Example 1, (S)—N-(9-Fluoro-2-oxo-2,3,4,5-tetrahydro-1H-benzo[b][1,4]diazepin-3-yl)-5-(2-fluorobenzyl)-4H-1,2,4-triazole-3-carboxamide]",FP Binding Assay (pIC50),RIP1,8.0
"CN1C(=O)[C@@H](NC(=O)c2n[nH]c(Cc3ccccc3F)n2)CNc2ccccc21 [Example 3, (S)-5-(2-Fluorobenzyl)-N-(1-methyl-2-oxo-2,3,4,5-tetrahydro-1H-benzo[b][1,4]diazepin-3-yl)-1H-1,2,4-triazole-3-carboxamide]",FP Binding Assay (pIC50),RIP1,7.4
